Patent US20240417405A1, “Substituted Spiro Derivatives” (Janssen Pharmaceutica NV, priority 2021, published 2024)
pIC50: −log10 of the molar value. Like-named read-outs stand apart in the source and are kept apart here.

Key:
MOLM14 cells = assay: Proliferation assay, spheroid-like growth, MOLM14 (MLL-AF9 rearranged); assay type: cell-based, human; settings: 8 days, confluence as measure of spheroid size, read-out: spheroid assay_OneTime MOLM14 IC50
How it was run: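 MOLM14 (MLL-AF9) or KO-52 (MLL wildtype) cells were grown in ultra-low attachment round-bottom wells with compound (0.3% DMSO) for 8 days at 37 °C. Spheroid confluence was imaged live on day 8, normalized to DMSO and a high-dose reference/staurosporin control, and absolute IC50 fitted with variable slope.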

KO-52 cells = assay: Proliferation assay, spheroid-like growth, KO-52 (MLL wildtype control cell line); assay type: cell-based, human; settings: KO-52 control cells, 8 days, confluence as measure of spheroid size, read-out: spheroid assay_OneTime KO-52 IC50
Protocol: The anti-proliferative effect of menin/MLL protein/protein interaction inhibitor test compounds was assessed in human leukemia cell lines. The cell line MOLM14 harbors a MLL translocation and expresses the MLL fusion proteins MLL-AF9, respectively, as well as the wildtype protein from the second allele. […] KO-52 was used as a control cell line containing two MLL (KMT2A) wildtype alleles in order to exclude compounds that display general cytotoxic effects.
MOLM14 cells were cultured in RPMI-1640 (Sigma Aldrich) supplemented with 10% heat-inactivated fetal bovine serum (HyClone), 2 mM L-glutamine (Sigma Aldrich) and 50 μg/ml gentamycin (Gibco). KO-52 cell lines were propagated in alpha-MEM (Sigma Aldrich) supplemented with 20% heat-inactivated fetal bovine serum (HyClone), 2 mM L-glutamine (Sigma Aldrich) and 50 μg/ml gentamycin (Gibco).
In order to assess the anti-proliferative effects, 200 MOLM14 cells, or 300 KO-52 cells were seeded in 200 μl media per well in 96-well round bottom, ultra-low attachment plates (Costar, catalogue number 7007). Cell seeding numbers were chosen based on growth curves to ensure linear growth throughout the experiment. Test compounds were added at different concentrations and the DMSO content was normalized to 0.3%. Cells were incubated for 8 days at 37° C. and 5% CO2. Spheroid like growth was measured in real-time by live-cell imaging (IncuCyteZOOM, Essenbio, 4× objective) acquiring images at day 8. Confluence (%) as a measure of spheroid size was determined using an integrated analysis tool.
In order to determine the effect of the test compounds over time, the confluence in each well as a measure of spheroid size, was calculated. Confluence of the highest dose of a reference compound was used as baseline for the LC (Low control) and the confluence of DMSO treated cells was used as 0% cytotoxicity (High Control, HC).
Absolute IC50 values were calculated as percent change in confluence as follows:
LC=Low Control: cells treated with e.g. 1 μM of the cytotoxic agent staurosporin, or e.g. cells treated with a high concentration of an alternative reference compound
GraphPad Prism (version 7.00) was used to calculate the IC50. Dose-response equation was used for the plot of % Effect vs Log 10 compound concentration with a variable slope and fixing the maximum to 100% and the minimum to 0%.

[1] = molecular target: T1, menin/MLL (terbium chelate-labeled menin, FITC-MBM1 peptide) (Homo sapiens, UniProt O00255, T541A); assay: Menin/MLL homogenous time-resolved fluorescence (HTRF) assay; assay type: binding; settings: 30 min incubation
T1 construct: Menin (a.a 1-610-6xhis tag)
T1 sequence (O00255 with tags, fused parts or gaps T541A): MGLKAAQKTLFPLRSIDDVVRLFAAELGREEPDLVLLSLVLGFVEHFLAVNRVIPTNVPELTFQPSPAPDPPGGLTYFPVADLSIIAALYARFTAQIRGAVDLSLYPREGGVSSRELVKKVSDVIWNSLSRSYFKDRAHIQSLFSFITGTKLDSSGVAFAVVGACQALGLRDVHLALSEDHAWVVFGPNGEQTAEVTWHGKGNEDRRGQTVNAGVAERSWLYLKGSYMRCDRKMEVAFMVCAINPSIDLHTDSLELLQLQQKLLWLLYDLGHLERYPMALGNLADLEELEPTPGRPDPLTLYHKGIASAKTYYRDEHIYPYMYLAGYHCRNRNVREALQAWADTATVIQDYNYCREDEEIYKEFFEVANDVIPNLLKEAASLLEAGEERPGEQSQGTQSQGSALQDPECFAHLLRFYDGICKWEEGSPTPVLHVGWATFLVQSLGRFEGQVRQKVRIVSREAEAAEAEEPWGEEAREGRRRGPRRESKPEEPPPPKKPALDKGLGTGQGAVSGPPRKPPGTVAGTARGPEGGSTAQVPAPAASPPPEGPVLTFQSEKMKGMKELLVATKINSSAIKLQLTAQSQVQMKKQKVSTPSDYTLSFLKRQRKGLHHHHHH
How it was run: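 Read-out: TR-FRET ratio (FITC 520 nm / terbium 490 nm, ex. 337 nm) after 15 min with 75 nM FITC-MBM1 peptide. Test compound first sat 30 min with 200 pM Tb-menin 1-610-His, 0.5% DMSO, pH 7.5 Tris buffer. IC50 by Hill fit; values under 0.1 nM reported as 0.1 nM.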

| pIC50 (MOLM14 cells; Homo sapiens, MOLM-14, 192 h) | pIC50 [1] | pIC50 (MOLM14 cells) | SMILES | pIC50 (KO-52 cells; Homo sapiens, 192 h) | pIC50 (KO-52 cells) |
| --- | --- | --- | --- | --- | --- |
| 8.40 | 10.00 | – | CC(C)[C@H]([C@H]1C[C@@H](N2CC(O)C3(CC3)C2)C1)N1CC2(CCN(c3ncnnc3Oc3ccc(F)cc3-c3cncnc3C3CC3)C2)C1 (mixture of isomers) [Compound 42] | 5.67 | – |
| 7.38 | 10.00 | – | CC(C)[C@H]([C@H]1C[C@H](N2CC(O)C3(CC3)C2)C1)N1CC2(CCN(c3ncnnc3Oc3ccc(F)cc3-c3cncnc3C3CC3)C2)C1 (mixture of isomers) [Compound 43] | 5.00 | – |
| – | 9.40 | 6.70 | CC(C)C([C@H]1C[C@@H](N)C1)N1CC2(CCN(c3ncnnc3Oc3ccc(F)cc3-c3cncnc3C3CC3)C2)C1 (single isomer, unassigned) [Compound 1b] | – | < 4.82 |
| – | 7.78 | 5.88 | CC(=O)NC1CC(C(C(C)C)N2CC3(CCN(c4ncnnc4Oc4ccc(F)cc4-c4cncnc4C4CC4)C3)C2)C1 (single isomer, unassigned) [Compound 2b] | – | < 4.82 |
| 7.18 | 9.52 | – | CC(C)[C@H](C1CCN(CC2(O)CC2)CC1)N1CC2(CCN(c3ncnnc3Oc3ccc(F)cc3-c3cncnc3C3CC3)C2)C1 (single isomer, unassigned) [Compound 4] | 5.11 | – |
| 7.24 | – | – | CC(C)[C@H]([C@H]1C[C@H](N2CCC(C)(C(=O)N(C)C)CC2)C1)N1CC2(CCN(c3ncnnc3Oc3ccc(F)cc3-c3cncnc3C3CC3)C2)C1 (single isomer, unassigned) [Compound 63] | < 4.82 | – |
| 7.12 | – | – | CC(C)[C@H]([C@H]1C[C@@H](NC(=O)C2CC2)C1)N1CC2(CCN(c3ncnnc3Oc3ccc(F)cc3-c3cccc(=O)n3C3CC3)C2)C1 (single isomer, unassigned) [Compound 190] | 4.83 | – |
| 8.70 | – | – | CC(C)[C@H]([C@H]1C[C@@H](N2CC[C@](C)(O)C2)C1)N1CC2(CCN(c3ncnnc3Oc3ccc(F)cc3-c3cncnc3C3CC3)C2)C1 [Compound 12] | < 4.82 | – |
| 6.92 | – | – | CC(C)C([C@H]1C[C@H](N2CCC(C)(O)CC2)C1)N1CC2(CCN(c3ncnnc3Oc3ccc(F)cc3-c3cncnc3C3CC3)C2)C1 (stereo partly drawn) [Compound 130] | < 4.82 | – |
| 8.52 | – | – | CC(C)C([C@H]1C[C@@H](N2C[C@H]3COC[C@H]3C2)C1)N1CC2(CCN(c3ncnnc3Oc3ccc(F)cc3-c3cnc(C#N)nc3C3CC3)C2)C1 (stereo partly drawn) [Compound 166] | 5.82 | – |
| > 8.74 | 10.23 | – | Cc1ncc(-c2cc(F)ccc2Oc2nncnc2N2CCC3(C2)CN([C@@H](C(C)C)[C@H]2C[C@@H](N4C[C@H]5COC[C@H]5C4)C2)C3)c(C2CC2)n1 [Compound 396] | – | – |
| 6.59 | 9.28 | – | Cc1cc(C2CC2)c(-c2cc(F)ccc2Oc2nncnc2N2CCC3(C2)CN([C@@H](C(C)C)[C@H]2C[C@H](N4C[C@@H]5[C@H](C4)[C@H]5C(=O)N(C)C)C2)C3)nn1 [Compound 401] | – | – |
| 8.05 | 9.77 | – | CO[C@H]1[C@@H]2CN([C@H]3C[C@@H]([C@H](C(C)C)N4CC5(CCN(c6ncnnc6Oc6ccc(F)cc6-c6nnc(C)cc6C6CC6)C5)C4)C3)C[C@@H]21 [Compound 402] | – | – |
| 6.64 | 9.23 | – | CO[C@H]1[C@@H]2CN([C@H]3C[C@H]([C@H](C(C)C)N4CC5(CCN(c6ncnnc6Oc6ccc(F)cc6-c6nnc(C)cc6C6CC6)C5)C4)C3)C[C@@H]21 [Compound 403] | – | – |
| > 8.74 | 9.96 | – | CC(=O)Nc1cc(NC2CC(C(C(C)C)N3CC4(CCN(c5ncnnc5Oc5ccc(F)cc5-c5cncnc5C5CC5)C4)C3)C2)ccn1 (stereo not drawn) [Compound 407] | – | – |

The remaining lines, values behind:

| SMILES | pIC50 (MOLM14 cells; Homo sapiens, MOLM-14, 192 h) | pIC50 [1] | pIC50 (MOLM14 cells) | pIC50 (KO-52 cells; Homo sapiens, 192 h) | pIC50 (KO-52 cells) |
| --- | --- | --- | --- | --- | --- |
| CC(C)[C@H]([C@H]1C[C@H](N2CC(O)C3(CCC3)C2)C1)N1CC2(CCN(c3ncnnc3Oc3ccc(F)cc3-c3cncnc3C3CC3)C2)C1 (mixture of isomers) [Compound 213] | 7.39 | 10.00 | – | 5.41 | – |
| COC1(C)CCN([C@H]2C[C@H]([C@H](C(C)C)N3CC4(CCN(c5ncnnc5Oc5ccc(F)cc5-c5nnccc5C5CC5)C4)C3)C2)C1 (mixture of isomers) [Compound 276] | 7.09 | 9.10 | – | < 4.82 | – |
| CC(C)C([C@H]1C[C@@H](N)C1)N1CC2(CCN(c3ncnnc3Oc3ccc(F)cc3-c3cncnc3C3CC3)C2)C1 (single isomer, unassigned) [Compound 1a] | – | 10.00 | 7.70 | < 4.82 | – |
| CC(=O)N[C@H]1C[C@@H]([C@@H](C(C)C)N2CC3(CCN(c4ncnnc4Oc4ccc(F)cc4-c4cncnc4C4CC4)C3)C2)C1 (single isomer, unassigned) [Compound 2a] | 7.66 | 9.70 | – | 5.15 | – |
| CC(C)[C@@H]([C@H]1C[C@@H](NC(=O)C2CC2)C1)N1CC2(CCN(c3ncnnc3Oc3ccc(F)cc3-c3cccc(=O)n3C3CC3)C2)C1 (single isomer, unassigned) [Compound 191] | < 6.03 | – | – | < 4.82 | – |
| CC(C)C([C@H]1C[C@H](NCC(C)(C)O)C1)N1CC2(CCN(c3ncnnc3Oc3ccc(F)cc3-c3cncnc3C3CC3)C2)C1 (stereo partly drawn) [Compound 134] | 6.89 | – | – | 4.88 | – |
| CC(C)C([C@H]1C[C@H](N2CC3(COC3)C2)C1)N1CC2(CCN(c3ncnnc3Oc3ccc(F)cc3-c3ncc(C#N)cc3C3CC3)C2)C1 (stereo partly drawn) [Compound 141] | 6.59 | – | – | 4.91 | – |
| Fc1ccc(Oc2nncnc2N2CCC3(C2)CN(C(C2CCN(CC4COC4)CC2)C24CC(C2)C4)C3)c(-c2nnccc2C2CC2)c1 (stereo not drawn) [Compound 340] | 6.77 | – | – | 4.94 | – |
| Cc1ncc(-c2cc(F)ccc2Oc2nncnc2N2CCC3(C2)CN([C@@H](C(C)C)[C@H]2C[C@@H](N4CC5(CN(C(=O)C6CC6)C5)C4)C2)C3)c(C2CC2)n1 [Compound 392] | 8.70 | 9.96 | – | – | – |
| CNC(=O)[C@H]1CCN([C@H]2C[C@@H]([C@H](C(C)C)N3CC4(CCN(c5ncnnc5Oc5ccc(F)cc5-c5cnc(C)nc5C5CC5)C4)C3)C2)C1 [Compound 393] | > 8.74 | 9.89 | – | – | – |
| CC(=O)N1CC2(C1)CN([C@H]1C[C@@H]([C@H](C(C)C)N3CC4(CCN(c5ncnnc5Oc5ccc(F)cc5-c5cnc(C)nc5C5CC5)C4)C3)C1)C2 [Compound 394] | 8.52 | 10.08 | – | – | – |
| CO[C@H]1CCN([C@H]2C[C@@H]([C@H](C(C)C)N3CC4(CCN(c5ncnnc5Oc5ccc(F)cc5-c5nnc(C)cc5C5CC5)C4)C3)C2)C1 [Compound 398] | 8.19 | 9.84 | – | – | – |
